Paper PMC11428815, “Characterization of Novel SARM1 Inhibitors for the Treatment of Chemotherapy-Induced Peripheral Neuropathy” (Biomedicines, 2024)

System: T1, SARM1 TIR domain (DmrB–TIR)
T1 construct: the SARM1 TIR domain was constructed into an Fkbp variant (DmrB); expressed in transfected cells; host or cells: 293T cells
Assay: DmrB–TIR dimerization (AP20187)-induced cell death in 293T cells
Format: cell-based
Conditions: 24 h after AP20187 addition
From the text: To verify the inhibitory mechanism of SARM1 owing to the TIR domain, the SARM1 TIR domain was constructed into an Fkbp variant (DmrB) at its N terminus, which undergoes homodimerization in the presence of AP20187 (a rapamycin analog) (Figure 2A).
Figure 2 Design and characterization of the toxic effects of the SARM1 TIR domain in 293T cells using different compounds. (A) Scheme for TIR dimerization to verify the TIR domain using an Frb–Fkbp moiety fusion. (B) Compounds used and NR display prevention of DmrB–TIR-dependent death 24 h after AP20187 addition.

For NC(=O)c1ccc[n+]([C@@H]2O[C@H](CO)[C@@H](O)[C@H]2O)c1 [NR], the “prevention of DmrB–TIR-dependent cell death (cell viability)” value was “cell death caused by TIR dimerization was alleviated”.
